Assay results published in US20150152395A1, “CHIMERIC LUCIFERASES” (Connecticut College, priority 2012, published 2015).

Key:
Assay in all cases: Steady-state kinetic constants, bioluminescence activity
[1] = target: T1, Photinus pyralis luciferase variant Ppy RE13, Ppy RE9 (SEQ ID NO: 20) with Ile457Val/Arg465Phe/Ala482Gly/His489Lys/Ala503Asn/Lys543Gln, SEQ ID NO: 16 (Photinus pyralis, UniProt P08659, A215L/A482G/A503N/E354I/F295L/H489K/I232A/I351V/I457V/K543Q/R330G/S284T/T214A); assay type: biochemical
T1 construct: N-terminal GPLGS; pGEX-6P-2 GST fusion (tag cleaved), E. coli BL21
T1 sequence (P08659 whole entry T214A/A215L/I232A/S284T/F295L/R330G/I351V/E354I/I457V/A482G/H489K/A503N/K543Q, the tested form may be a part): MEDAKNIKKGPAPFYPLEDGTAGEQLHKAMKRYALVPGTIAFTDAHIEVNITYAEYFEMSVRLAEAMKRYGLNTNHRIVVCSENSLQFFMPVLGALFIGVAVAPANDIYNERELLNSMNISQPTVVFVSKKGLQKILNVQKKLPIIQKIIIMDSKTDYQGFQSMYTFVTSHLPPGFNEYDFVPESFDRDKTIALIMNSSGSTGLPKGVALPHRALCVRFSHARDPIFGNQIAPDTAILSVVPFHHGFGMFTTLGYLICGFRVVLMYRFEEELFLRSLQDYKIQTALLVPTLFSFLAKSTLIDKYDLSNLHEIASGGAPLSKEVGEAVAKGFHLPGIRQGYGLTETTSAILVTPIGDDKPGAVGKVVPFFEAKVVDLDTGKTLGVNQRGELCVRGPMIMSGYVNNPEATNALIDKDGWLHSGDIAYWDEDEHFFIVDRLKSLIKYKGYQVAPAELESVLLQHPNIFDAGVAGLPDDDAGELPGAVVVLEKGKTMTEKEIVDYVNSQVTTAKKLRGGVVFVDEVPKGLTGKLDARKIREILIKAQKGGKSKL

[2] = tested on: LitPpy, chimeric luciferase of LitWT residues 1-439 and PpyWT residues 440-550; assay type: biochemical, Luciola italica / Photinus pyralis
Method: (§1) Reactions were initiated by injection of solutions of the substrate being maintained at saturating concentration. Kinetic constants were determined using a nonlinear least squares method of the Enzyme Kinetics Pro software (SynTex), which fits data from the Michalis-Menten equation to a rectangular hyperbola. The corresponding kcat values were obtained by dividing the Vmax values by the amount (μmol) of each luciferase in the assay mixtures.

[3] = target: T2, Photinus pyralis luciferase PpyWT variant Ppy5, Ile457Val/Ala482Gly/His489Lys/Ala503Asn/Lys543Gln, SEQ ID NO: 10 (Photinus pyralis, UniProt P08659, A482G/A503N/H489K/I457V/K543Q); assay type: biochemical
T2 construct: pGEX-6P-2 GST fusion (tag cleaved), E. coli BL21
T2 sequence (P08659 whole entry I457V/A482G/H489K/A503N/K543Q, the tested form may be a part): as the sequence (P08659 whole entry T214A/A215L/I232A/S284T/F295L/R330G/I351V/E354I/I457V/A482G/H489K/A503N/K543Q, the tested form may be a part) above, with A214T, L215A, A232I, T284S, L295F, G330R, V351I, I354E counted along it

[4] = target: Photinus pyralis luciferase, recombinant wild type (PpyWT), SEQ ID NO: 4, with N-terminal peptide GPLGS (Photinus pyralis, UniProt P08659); assay type: biochemical
Photinus pyralis luciferase, recombinant wild type (PpyWT), SEQ ID NO: 4, with N-terminal peptide GPLGS, sequence (P08659 whole entry): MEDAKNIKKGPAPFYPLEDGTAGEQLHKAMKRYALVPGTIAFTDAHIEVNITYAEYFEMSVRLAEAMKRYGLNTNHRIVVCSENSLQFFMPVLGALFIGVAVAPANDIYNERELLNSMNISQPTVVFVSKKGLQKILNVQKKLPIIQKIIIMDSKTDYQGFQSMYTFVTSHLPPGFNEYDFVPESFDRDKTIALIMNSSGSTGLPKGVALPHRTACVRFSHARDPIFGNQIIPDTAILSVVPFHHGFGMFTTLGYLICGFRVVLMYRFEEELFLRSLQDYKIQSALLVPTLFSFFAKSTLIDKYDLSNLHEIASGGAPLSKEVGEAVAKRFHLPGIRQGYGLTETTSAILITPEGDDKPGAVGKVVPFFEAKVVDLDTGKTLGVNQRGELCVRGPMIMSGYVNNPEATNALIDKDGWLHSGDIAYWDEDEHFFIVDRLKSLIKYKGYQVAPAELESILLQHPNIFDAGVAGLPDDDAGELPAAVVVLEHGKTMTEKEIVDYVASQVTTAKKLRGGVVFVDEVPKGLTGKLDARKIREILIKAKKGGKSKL

[5] = target: T3, Photinus pyralis luciferase variant Ppy RE-TS5/I351V, PpyRE-TS (SEQ ID NO: 24) with Ile457Val/Ala482Gly/His489Lys/Ala503Asn/Lys543Gln/Ile351Val, SEQ ID NO: 14 (Photinus pyralis, UniProt P08659, A215L/A482G/A503N/E354K/F295L/H489K/I232A/I351V/I457V/K543Q/S284T/T214A); assay type: biochemical
T3 construct: N-terminal GPLGS; pGEX-6P-2 GST fusion (tag cleaved), E. coli BL21
T3 sequence (P08659 whole entry T214A/A215L/I232A/S284T/F295L/I351V/E354K/I457V/A482G/H489K/A503N/K543Q, the tested form may be a part): as the sequence (P08659 whole entry T214A/A215L/I232A/S284T/F295L/R330G/I351V/E354I/I457V/A482G/H489K/A503N/K543Q, the tested form may be a part) above, with G330R, I354K counted along it

[6] = target: T4, Photinus pyralis luciferase variant Ppy RE-TS, SEQ ID NO: 24 (Photinus pyralis, UniProt P08659, A215L/E354K/F295L/I232A/S284T/T214A); assay type: biochemical
T4 construct: N-terminal GPLGS; pGEX-6P-2 GST fusion (tag cleaved), E. coli BL21
T4 sequence (P08659 whole entry T214A/A215L/I232A/S284T/F295L/E354K, the tested form may be a part): as the sequence (P08659 whole entry) above, with T214A, A215L, I232A, S284T, F295L, E354K counted along it

[7] = tested on: PpyLit, chimeric luciferase of PpyWT residues 1-439 and LitWT residues 440-550, SEQ ID NO: 8; assay type: biochemical, Photinus pyralis / Luciola italica
Method: as §1

[8] = tested on: PpyLit (chimeric luciferase, SEQ ID NO: 8) variant I232A/I351V/E354K; assay type: biochemical, Photinus pyralis / Luciola italica
Method: as §1

[9] = tested on: PpyLit (chimeric luciferase, SEQ ID NO: 8) variant I351V/E354K/F465R; assay type: biochemical, Photinus pyralis / Luciola italica
Method: as §1

[10] = tested on: PpyLit (chimeric luciferase, SEQ ID NO: 8) variant F465R; assay type: biochemical, Photinus pyralis / Luciola italica
Method: as §1

[11] = tested on: PpyLit (chimeric luciferase, SEQ ID NO: 8) variant S284T/F465R; assay type: biochemical, Photinus pyralis / Luciola italica
Method: as §1

[12] = tested on: PpyLit (chimeric luciferase, SEQ ID NO: 8) variant S284T; assay type: biochemical, Photinus pyralis / Luciola italica
Method: as §1

[13] = tested on: Ppy GR-TSLit, chimeric luciferase of Ppy GR-TS N-domain and LitWT C-domain; assay type: biochemical, Photinus pyralis / Luciola italica
Method: as §1

[14] = tested on: Ppy RE-TSLit, chimeric luciferase of Ppy RE-TS N-domain and LitWT C-domain; assay type: biochemical, Photinus pyralis / Luciola italica
Method: as §1

[15] = tested on: PpyLit (chimeric luciferase, SEQ ID NO: 8) variant I351V/E354K; assay type: biochemical, Photinus pyralis / Luciola italica
Method: as §1

[16] = tested on: PpyLit (chimeric luciferase, SEQ ID NO: 8) variant I232A/E354K; assay type: biochemical, Photinus pyralis / Luciola italica
Method: as §1

[17] = tested on: PpyLit (chimeric luciferase, SEQ ID NO: 8) variant S284T/I351V/E354K; assay type: biochemical, Photinus pyralis / Luciola italica
Method: as §1

[18] = target: T5, Photinus pyralis luciferase PpyWT variant Ppy S284T (Ser284Thr) (Photinus pyralis, UniProt P08659, S284T); assay type: biochemical
T5 construct: pGEX-6P-2 GST fusion (tag cleaved), E. coli BL21
T5 sequence (P08659 whole entry S284T, the tested form may be a part): as the sequence (P08659 whole entry) above, with S284T counted along it

[19] = target: T6, Photinus pyralis luciferase variant Ppy GR-TS (Photinus pyralis, UniProt P08659, A215L/E354K/F250S/F295L/G246A/I232A/T214A/V241I); assay type: biochemical
T6 construct: N-terminal GPLGS; pGEX-6P-2 GST fusion (tag cleaved), E. coli BL21
T6 sequence (P08659 whole entry T214A/A215L/I232A/V241I/G246A/F250S/F295L/E354K, the tested form may be a part): as the sequence (P08659 whole entry) above, with T214A, A215L, I232A, V241I, G246A, F250S, F295L, E354K counted along it

[20] = target: T7, Native Ppy, native firefly luciferase from Photinus pyralis (Photinus pyralis, UniProt P08659); assay type: biochemical
T7 construct: wild type, no tag
T7 sequence (P08659 whole entry): as the sequence (P08659 whole entry) above

[21] = read-out: Km Mg-ATP, pH 7.8, LH2 saturating
[22] = pH 7.8, LH2 saturating, read-out: Km Mg-ATP

`Nc1ncnc2c1ncn2[C@@H]1O[C@H](COP(=O)(O)OP(=O)(O)OP(=O)(O)O)[C@@H](O)[C@H]1O` [Mg-ATP] was tested, and the kcat/Km ([1]; kcat divided by Mg-ATP Km) was 380 ± 100 M⁻¹ s⁻¹, the Km [1, 21] was 289 ± 20 µM and the kcat/Km ([2]; kcat divided by Mg-ATP Km) was 1180 ± 60 M⁻¹ s⁻¹. The Km [2, 22] was 188 ± 10 µM, the kcat/Km ([3]; kcat divided by Mg-ATP Km) was 4310 ± 120 M⁻¹ s⁻¹ and the Km [3, 21] was 72 ± 7 µM. The kcat/Km ([4]; kcat divided by Mg-ATP Km) was 2090 ± 100 M⁻¹ s⁻¹, the Km [4, 22] was 86 ± 7 µM and the kcat/Km ([5]; kcat divided by Mg-ATP Km) was 1290 ± 140 M⁻¹ s⁻¹. For the same compound, the Km [5, 21] was 93 ± 19 µM, the kcat/Km ([6]; kcat divided by Mg-ATP Km) was 820 ± 90 M⁻¹ s⁻¹ and the Km [6, 21] was 68 ± 5 µM. The “enhanced catalytic efficiency (kcat/Km ATP)” value ([7]; compared to PpyWT) was 2.9 fold, the kcat/Km ([7]; kcat divided by Mg-ATP Km) was 6040 ± 120 M⁻¹ s⁻¹ and the Km [7, 22] was 53 ± 5 µM. For the same compound, the kcat/Km ([8]; kcat divided by Mg-ATP Km) was 1860 ± 120 M⁻¹ s⁻¹, the Km [8, 22] was 129 ± 14 µM and the kcat/Km ([9]; kcat divided by Mg-ATP Km) was 3090 ± 90 M⁻¹ s⁻¹. It also gave a Km [9, 22] of 94 ± 8 µM, a kcat/Km ([10]; kcat divided by Mg-ATP Km) of 3430 ± 100 M⁻¹ s⁻¹ and a Km [10, 22] of 99 ± 6 µM. It also gave a kcat/Km ([11]; kcat divided by Mg-ATP Km) of 1670 ± 140 M⁻¹ s⁻¹, a Km [11, 22] of 60 ± 6 µM and a kcat/Km ([12]; kcat divided by Mg-ATP Km) of 1120 ± 150 M⁻¹ s⁻¹. The Km [12, 22] was 89 ± 10 µM, the kcat/Km ([13]; kcat divided by Mg-ATP Km) was 170 ± 70 M⁻¹ s⁻¹ and the Km [13, 22] was 466 ± 36 µM. The kcat/Km ([14]; kcat divided by Mg-ATP Km) was 1130 ± 120 M⁻¹ s⁻¹, the Km [14, 22] was 79 ± 9 µM and the kcat/Km ([15]; kcat divided by Mg-ATP Km) was 3750 ± 150 M⁻¹ s⁻¹. The Km [15, 22] was 80 ± 10 µM, the kcat/Km ([16]; kcat divided by Mg-ATP Km) was 3290 ± 100 M⁻¹ s⁻¹ and the Km [16, 22] was 76 ± 4 µM. For the same compound, the kcat/Km ([17]; kcat divided by Mg-ATP Km) was 1360 ± 140 M⁻¹ s⁻¹, the Km [17, 22] was 95 ± 9 µM and the kcat/Km ([18]; kcat divided by Mg-ATP Km) was 630 ± 140 M⁻¹ s⁻¹. It also gave a Km [18, 21] of 79 ± 9 µM, a kcat/Km ([19]; kcat divided by Mg-ATP Km) of 500 ± 100 M⁻¹ s⁻¹ and a Km [19, 21] of 163 ± 16 µM. It also gave a kcat/Km ([20]; kcat divided by Mg-ATP Km) of 1890 ± 130 M⁻¹ s⁻¹ and a Km [20, 22] of 90 ± 10 µM.
